# Tested on: passively sensitized strip of pulmonary parenchyma (guinea pig)
# Experiment: inhibition of antigen-induced constriction of passively sensitized guinea pig pulmonary parenchyma strips in vitro (organ bath)
# Type: cell-based, guinea pig (Pirbright-White)
# Details: Cavia porcellus, 20 min; Superfusion; Concentration 10/μM (so in the source); test substance preincubated 20 minutes at 37° C., then ovalbumin constriction; percentage reduction of constriction amplitude vs untreated control constrictions
# Description: Activity of the inventive compounds was shown by the following testing in vitro. […] The method employed was as described herewith:
# Pirbright-White guinea pigs were stunned by a blow to the neck and bled. The lungs were flushed largely free of blood in situ with Krebs' buffer, pH 7.4.
# Then the lung was removed, cut into strips (approx. 20×4×4 mm) and the strips were passively sensitized for one hour at room temperature with a 1:50 dilution of a homologous anti-ovalbumin antiserum and then washed once with Krebs' buffer.
# The antiserum had previously been produced as described by Davies et al., (Quantitative studies on anaphylaxis in guinea pigs passively sensitized with homologous antibody. Inter. Arch. Allergy 41, 648-654 (1971)) in guinea pigs of the same strain by repeated injection of ovalbumin (2×crystallized) with the addition of complete Freund's adjuvant (Until it was used, the antiserum was stored undiluted at -18° C.).
# Then the lung strips were fixed singly with one end to the bottom of 10-milliliter organ baths, and with the upper end to isometric measuring devices for the recording of the constrictions of the lung strips through an amplifier on a plotter. The tenseron was adjusted to 1.2 g weight.
# Then the baths were filled with Krebs' buffer and continually gassed at 37° C. with O2 (95%) and CO2 (5%).
# After a 30-minute equilibration phase, histamine control spasms were produced in order to establish the reactivity of the lung specimens, washed, then the test substance was preincubated for 20 minutes at 37° C., and the ovalbumin constriction was produced.
# The inhibiting action of the compounds according to the invention was expressed as percentage reduction of the constriction amplitude of the "specimens with the test substance" in proportion to the "untreated control constrictions."
row,SMILES,inhibition at 10 µM [%]
1,"COc1cccc(CN(c2ncnc3[nH]ncc23)C2CCCC2)c1 [Example 2d, 4-[N--(3-methoxybenzyl)-cyclopentylamino]-1H--pyrazolo[3,4-d]pyrimidine]",36
2,"CCOC(=O)c1cccc(CN(c2ncnc3[nH]ncc23)C2CCCC2)c1 [Example 2g, 4-[N--(3-ethoxycarbonylbenzyl)-cyclopentylamino]-1H--pyrazolo[3,4-d]pyrimidine]",40
3,"N#Cc1cccc(CN(c2ncnc3[nH]ncc23)C2CCCC2)c1 [Example 2i, 4-[N--(3-cyanobenzyl)-cyclopentylamino]-1H--pyrazolo[3,4-d]pyrimidine]",35
4,"Clc1ccc(Cl)c(CN(c2ncnc3[nH]ncc23)C2CCCC2)c1 [Example 2j, 4-[N--(2,5-dichlorobenzyl)-cyclopentylamino] -1H--pyrazolo[3,4-d]pyrimidine]",29
5,"Clc1ccc(CN(c2ncnc3[nH]ncc23)C2CCCC2)cc1Cl [Example 2k, 4-[N--(3,4-dichlorobenzyl)-cyclopentylamino]-1H--pyrazolo[3,4-d]pyrimidine]",32
6,"Cc1ccc(Cl)cc1CN(c1ncnc2[nH]ncc12)C1CCCC1 [Example 2l, 4-[N--(5-chloro-2-methylbenzyl)-cyclopentylamino]-1H--pyrazolo[3,4-d]pyrimidine]",32
7,"Cc1ccc(C)c(CN(c2ncnc3[nH]ncc23)C2CCCC2)c1 [Example 2n, 4-[N--(2,5-dimethylbenzyl)-cyclopentylamino]-1H--pyrazolo[3,4-d]pyrimidine]",32
8,"c1coc(CN(c2ncnc3[nH]ncc23)C2CCCC2)c1 [Example 2o, 4-[N--(2-furylmethyl)-cyclopentylamino]-1H--pyrazolo[3,4-d]pyrimidine]",39
9,"c1csc(CN(c2ncnc3[nH]ncc23)C2CCCC2)c1 [Example 2p, 4-[N--(thiophen-2-ylmethyl)-cyclopentylamino]-1H--pyrazolo[3,4-d]pyrimidine]",37
10,"OCC(O)Cn1ncc2c(N(Cc3cccc(C(F)(F)F)c3)C3CCCC3)ncnc21 (stereo not shown) [Example 4b, 4-[N--(3-trifluoromethylbenzyl)-cyclopentylamino]-1-(2,3-dihydroxypropyl)-1H--pyrazolo[3,4-d]pyrimidine]",36

# — patent US4904666A, “Pyrazolo(3,4-d)pyrimidine compounds, compositions and method of use” (Boehringer Mannheim GmbH, priority 1987, dated 1990)
